Test results: patent US20250213549A1, “COMPOSITION COMPRISING NICOTINAMIDE, NICOTINAMIDE PRECURSORS, NICOTINAMIDE METABOLITES OR COMBINATIONS THEREOF FOR PREVENTING OR REDUCING ONE OR MORE POST-ACUTE SYMPTOMS OF INFECTIOUS DISEASES” (CONARIS Research Institute AG, priority 2022, published 2025)

Experiments:
[1] = system: antibodies directed against the nucleocapsid (N) protein of SARS-CoV-2; experiment: Anti-N antibody levels (AProof Duo Test ELISA) at 6-month follow-up, COVit-2 trial; type: in vivo, human
[2] = system: antibodies directed against the spike (S) protein of SARS-CoV-2; experiment: Anti-S antibody levels (AProof Duo Test ELISA) at 6-month follow-up, COVit-2 trial; type: in vivo, human
Source text: (§1) In the monocentric, randomized, double-blind, prospective, placebo-controlled dietary intervention trial COVit-2 (DRKS00021214; NCT04751604) conducted at the Department of Internal Medicine I of the University Medical Center Schleswig-Holstein, Campus Kiel (Germany), outpatients with early symptomatic COVID-19 (up to 7 days after their first positive SARS-CoV-2 PCR test) in domestic quarantine were recruited from February 2021 to January 2022. As the vaccinations against SARS-CoV-2 became available to the broader public only after several hundred patients had already been recruited into the COVit-2 trial, partly or fully vaccinated patients were excluded from participation to maintain the same inclusion population and ensure formal comparability of all patients within the trial. However, there is no reason or evidence to assume that the fundamental metabolic and microbiota-targeting effects of nicotinamide could be any different in symptomatic COVID-19 patients with or without prior vaccination.
(§2) For details of the trial, see Wätzig & Schreiber 2021, PCT/EP2021/083138. Patients were randomized to oral self-administration (once daily with breakfast for 28 days) of either a combination of two different nicotinamide tablets (one conventional 500-mg immediate-release nicotinamide tablet and one novel 500-mg controlled-ileocolonic-release nicotinamide [CICR-NAM]tablet, which ensures prolonged and continuous intestinal exposure to nicotinamide) or matching placebo tablets. The entire trial was conducted remotely. Patients registered online and were contacted by the study team to check their eligibility and to supply the written patient information and informed consent forms. After informed consent, patients were called for baseline data acquisition (week 0) and subsequently at week 2, week 4 and week 6. The queried baseline information included personal and demographic data, smoking status, comorbidities, concomitant administration of dietary supplements or medicaments as well as COVID-19 symptoms. At weeks 2, 4 and 6, regular intake of the trial supplements and concomitant supplements and medicaments, respectively, was queried as well as the current COVID-19 symptoms and disease course.
For the antibody level measurements, the time between the positive SARS-CoV-2 PCR test and the date of blood sampling for antibody analysis as well as, if applicable, the intervals between one or more subsequent vaccinations against SARS-CoV-2 and the blood sampling date were recorded. Antibody levels were measured using the AProof Duo Test (Adversis Pharma, now AP Diagnostics; Leipzig, Germany). In this test, dried blood spot samples are rehydrated and analysed by ELISAs detecting antibodies directed against the nucleocapsid (N) or spike (S) protein of SARS-CoV-2. Antibodies against the N protein are analysed to evaluate immunity generated only by SARS-CoV-2 infection. After infection with SARS-CoV-2, levels of antibodies against the S protein can represent both the consequences of infection (if no additional vaccination is performed) or of the combined humoral immunity generated by infection and subsequent vaccination(s). Between the 6-week observation period of the acute infection and the follow-up after at least 6 months, many trial participants had been vaccinated against SARS-CoV-2. Anti-N antibody levels were quantified as percent of the signal of a positive control consisting of an anti-N antibody pool from five donors collected at different time points starting 2 weeks after PCR-confirmed infection with SARS-CoV-2. This anti-N antibody pool was diluted in the negative control medium at a fixed ratio. The detection was considered negative if below 20% of the positive control, borderline for 20-30% and positive if above 30%. Anti-S antibody protein levels were quantified as binding antibody units per milliliter (BAU/mL; according to the WHO International Standard for anti-SARS-CoV-2 immunoglobulin [human][NIBSC code 20/136]). […]

[3] = system: COVID-19 patients (PCS symptoms); experiment: Perceived Stress Scale (PSS) at 6-month follow-up, COVit-2 pilot population; type: in vivo, human; settings: pilot population n=50
Source text: (§3) In the monocentric, randomized, double-blind, prospective, placebo-controlled dietary intervention trial COVit-2 (DRKS00021214; NCT04751604) conducted at the Department of Internal Medicine I of the University Medical Center Schleswig-Holstein, Campus Kiel (Germany), outpatients with early symptomatic COVID-19 (up to 7 days after their first positive SARS-CoV-2 PCR test) in domestic quarantine were recruited from February 2021 to January 2022. […]
(§4) Approximately 6 months after infection, patients were contacted for follow-up interviews and a large battery of questionnaires and tests including antibody level measurements. […] A validated smell test (University of Pennsylvania Smell Identification Test™; Sensonics/MediSense) was performed by the patient and recorded as patient-reported outcome by a paper questionnaire. Questionnaires on olfactory and gustatory abilities (incl. the Self-reported Mini Olfactory Questionnaire, Self-MOQ, and the Questionnaire of Olfactory Disorders, QOD), respiration (Multidimensional Dyspnea Profile, MDP), mental state (Patient Health Questionnaire Depression, PHQ-8; Generalised Anxiety Disorder 7, GAD-7; Perceived Stress Scale, PSS; Brief Resilience Scale, BRS), sleep quality (Pittsburgh Sleep Quality Index, PSQI) and fatigue (Multidimensional Fatigue Inventory, MFI) were recorded as patient-reported outcomes by paper questionnaires. […]

[4] = system: COVID-19 patients (PCS symptoms); experiment: Patient Health Questionnaire Depression (PHQ-8) at 6-month follow-up, COVit-2 pilot population; type: in vivo, human; settings: pilot population n=50
Source text: as §3, §4

[5] = system: COVID-19 patients (PCS symptoms); experiment: Generalised Anxiety Disorder 7 (GAD-7) at 6-month follow-up, COVit-2 pilot population; type: in vivo, human; settings: pilot population n=50
Source text: as §3, §4

[6] = system: COVID-19 patients (PCS symptoms); experiment: University of Pennsylvania Smell Identification Test (UPSIT) at 6-month follow-up, COVit-2 pilot population; type: in vivo, human; settings: pilot population n=50
Source text: as §3, §4

[7] = system: COVID-19 patients (PCS symptoms); experiment: Cognition test T3MS at 6-month follow-up, COVit-2 pilot population; type: in vivo, human
Source text: as §3, §4

COVID-19 patients [8] = experiment: Impaired sense of smell in acute COVID-19 (patient interviews, change to baseline), COVit-2 risk factor population; type: in vivo, human; settings: for Impaired sense of smell: Persistence (no change), frequency / Impaired sense of smell: Resolution of impairment (return to normal), frequency / Impaired sense of smell: Worsening (new impairment), frequency: number of patients
Source text: as §1, §2
(§5) The COVit-2 trial (see Example 2) was expanded to a total of n=900 randomized patients. Of these, n=500 patients had at least one characteristic or underlying medical condition associated with an increased risk of developing severe illness from COVID-19, which was the population that had benefited most from nicotinamide supplementation in the acute phase of the disease (Wätzig & Schreiber 2021, PCT/EP2021/083138) and is hereinafter referred to as ‘risk factor population’.
(§6) In contrast, in the final analysis of n=500 patients of the risk factor population (the primary analysis population for acute COVID-19 in the COVit-2 trial), there was rather a trend favouring placebo, as evidenced by the rates of resolved, constant or newly occurring impairment shown in Table 2 to Table 5 below.
(§7) Here, the efficacy variables “impaired sense of smell” (yes/no) and “impaired sense of taste” (yes/no) from patient interviews represent the broadest and most sensitive approach, as other more specific tests or questions miss aspects of smell or taste that are not explicitly queried and thus may fail to detect significant differences. In the acute phase of the COVit-2 trial, these variables were analyzed using change to baseline, considered as resolution (symptom present at baseline but not at week x), persistence (no change compared to baseline) or worsening (symptom present at week x but not at baseline). The frequency of patients with symptom resolution, persistence or worsening for all weeks by treatment group was compared using the Cochran-Mantel-Haenszel test. Post-hoc tests for each week were calculated using the Fisher Exact test with Benjamini & Hochberg adjustment for multiple testing. The Woolfe test was performed to test for homogeneity of odds ratios across time. […]

COVID-19 patients [9] = experiment: Impaired sense of taste in acute COVID-19 (patient interviews, change to baseline), COVit-2 risk factor population; type: in vivo, human; settings: for Impaired sense of taste: Persistence (no change), frequency / Impaired sense of taste: Resolution of impairment (return to normal), frequency / Impaired sense of taste: Worsening (new impairment), frequency: number of patients
Source text: as §1, §2, §5, §6, §7

COVID-19 patients [10] = experiment: Impaired sense of smell at 6 months after COVID-19, COVit-2 risk factor population; type: in vivo, human
Source text: as §2, with “At weeks 2, 4 and 6, regular intake of the trial supplements and concomitant supplements and medicaments, respectively, was queried as well as the current COVID-19 symptoms and disease course.” left out
(§8) Approximately 6 months after infection, patients were contacted for follow-up interviews and a large battery of questionnaires and tests including antibody level measurements. […] A validated smell test (University of Pennsylvania Smell Identification Test™; Sensonics/MediSense) was performed by the patient and recorded as patient-reported outcome by a paper questionnaire. […]

COVID-19 patients [11] = experiment: Impaired sense of taste at 6 months after COVID-19, COVit-2 risk factor population; type: in vivo, human
Source text: as §2, with “At weeks 2, 4 and 6, regular intake of the trial supplements and concomitant supplements and medicaments, respectively, was queried as well as the current COVID-19 symptoms and disease course.” left out
as §8

COVID-19 patients [12] = settings: week 2; of 92 patients treated with nicotinamide
COVID-19 patients [13] = settings: acute phase, baseline until Week 6, mainly at week 2; interim analysis n=402; cited from earlier work
COVID-19 patients (PCS) = experiment: PCS score at 6 months after COVID-19 in PCS risk factor population, COVit-2; settings: PCS risk factor population (more than 5 predictors), N = 70
Source text: In this PCS score, 12 long-term symptom complexes (fatigue, cough/wheezing, neurological ailments, joint/muscle pain, ear-nose-throat ailments, gastrointestinal ailments, sleeping disturbance, exercise intolerance, infection signs, chemosensory deficits, chest pain and dermatological ailments) are combined with different weights.
In order to characterize a relevant subpopulation of the risk factor population as defined above that was additionally at risk for the development of PCS, baseline characteristics and symptoms of all available patients of the placebo population (n=425) were used to identify predictors for a PCS score of ≥5 at month 6 with a significance threshold of P<0.05. These predictors were the following: • medical history: chronic obstructive pulmonary disease, organ transplantation, depression, other chronic diseases, permanent intake of medication; • symptoms from the onset of COVID-19 until the trial baseline: shortness of breath, whistling/wheezing breathing, dizziness, vomiting, conjunctivitis; • at baseline: shortness of breath, whistling/wheezing breathing, dizziness, conjunctivitis, chills, muscle pain, limb pain, limitation of activity (a score of 2 in the WHO scale of COVID-19 severity developed in 2020; https://apps.who.int/iris/rest/bitstreams/1266940/retrieve, last accessed on 20 Mar. […]

[14] = first 50 patients per trial arm
[15] = n=50, negative if below 20% of positive control
[16] = n=50, positive if above 30% of positive control
[17] = n=50, negative if below 22 BAU/mL
[18] = n=50, positive if above 44 BAU/mL
[19] = acute phase, baseline until Week 6
[20] = 6 months after COVID-19, N = 236

NC(=O)c1cccnc1 [Nicotinamide, nicotinamide]
Anti-N antibodies, median [1, 14]: 10% + control | Anti-N antibodies, % negative [1, 15]: 66% | Anti-N antibodies, n negative [1, 15]: 33 | Anti-N antibodies, % positive [1, 16]: 28% | Anti-N antibodies, n positive [1, 16]: 14 | Anti-S antibodies, median [2, 14]: 813 BAU/mL | Anti-S antibodies, % negative [2, 17]: 2% | Anti-S antibodies, n negative [2, 17]: 1 | Anti-S antibodies, % positive [2, 18]: 94% | Anti-S antibodies, n positive [2, 18]: 47 | Anti-S antibodies, median ([2]; patients with at least one characteristic or condition associated with increased risk of severe COVID-19): 1,121 BAU/mL | median PSS score [3]: 24 | median PHQ-8 score [4]: 4 | median GAD-7 score [5]: 3 | proportion of patients with strong microsmia/hyposmia (UPSIT score <26) [6]: 2% | proportion of patients with mild cognitive impairment (T3MS score <89) ([7]; patients with increased risk of developing severe COVID-19): 10% | proportion of patients with mild cognitive impairment (T3MS score <89) ([7]; pilot population n=50): 8% | Impaired sense of smell: Persistence (no change), frequency (COVID-19 patients [8]; Week 2): 155 | Impaired sense of smell: Resolution of impairment (return to normal), frequency (COVID-19 patients [8]; Week 2): 61 | Impaired sense of smell: Worsening (new impairment), frequency (COVID-19 patients [8]; Week 2): 32 | Impaired sense of smell: Persistence (no change), frequency (COVID-19 patients [8]; Week 4): 150 | Impaired sense of smell: Resolution of impairment (return to normal), frequency (COVID-19 patients [8]; Week 4): 78 | Impaired sense of smell: Worsening (new impairment), frequency (COVID-19 patients [8]; Week 4): 20 | Impaired sense of smell: Persistence (no change), frequency (COVID-19 patients [8]; Week 6): 141 | Impaired sense of smell: Resolution of impairment (return to normal), frequency (COVID-19 patients [8]; Week 6): 92 | Impaired sense of smell: Worsening (new impairment), frequency (COVID-19 patients [8]; Week 6): 15 | effect on impaired sense of smell (COVID-19 patients [8]; [19]): no beneficial effect | Impaired sense of taste: Persistence (no change), frequency (COVID-19 patients [9]; Week 2): 170 | Impaired sense of taste: Resolution of impairment (return to normal), frequency (COVID-19 patients [9]; Week 2): 56 | Impaired sense of taste: Worsening (new impairment), frequency (COVID-19 patients [9]; Week 2): 22 | Impaired sense of taste: Persistence (no change), frequency (COVID-19 patients [9]; Week 4): 159 | Impaired sense of taste: Resolution of impairment (return to normal), frequency (COVID-19 patients [9]; Week 4): 74 | Impaired sense of taste: Worsening (new impairment), frequency (COVID-19 patients [9]; Week 4): 15 | Impaired sense of taste: Persistence (no change), frequency (COVID-19 patients [9]; Week 6): 157 | Impaired sense of taste: Resolution of impairment (return to normal), frequency (COVID-19 patients [9]; Week 6): 83 | Impaired sense of taste: Worsening (new impairment), frequency (COVID-19 patients [9]; Week 6): 8 | effect on impaired sense of taste (COVID-19 patients [9]; [19]): no beneficial effect | Impaired sense of smell, % of patients (COVID-19 patients [10]; [20]): 11.02% | effect on frequency of impaired sense of smell (COVID-19 patients [10]; after six months): significantly reduced frequencies | Impaired sense of taste, % of patients (COVID-19 patients [11]; [20]): 8.05% | effect on frequency of impaired sense of taste (COVID-19 patients [11]; after six months): significantly reduced frequencies | shortness of breath: patients recovered (COVID-19 patients [12]): 56 | benefit with regard to parameters of physical performance (COVID-19 patients [13]): biologically and statistically significant benefit | PCS score, mean (COVID-19 patients (PCS)): 3.66
